Reference: patent US20240041042A1, “1-(PYRIDYL)-5-AZINYLPYRAZOLE DERIVATIVES, AND THEIR USE FOR CONTROL OF UNDESIRED PLANT GROWTH” (Bayer Aktiengesellschaft, priority 2020, published 2024)
One block for each molecule: values may come before it.

Tests used:
Type in all cases: in vivo
Avena fatua (AVEFA) [1] = test: Pre-emergence herbicidal action against AVEFA; conditions: 320 g/ha, visual scoring after about 3 weeks vs untreated controls
Summary of the method: (§1)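 Pre-emergence soil-surface spray, WP/EC formulation, 0.5% additive, 600 l/ha water, rates of 320 g/ha or lower. Greenhouse, ~3 wk. Visual score, % of untreated control (100% = plants dead, 0% = like control).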

Lolium rigidum (LOLRI) [2] = test: Pre-emergence herbicidal action against LOLRI
Summary of the method: as §1

[3] = test system: Verconica persica (VERPE); test: Post-emergence herbicidal action against VERPE
Summary of the method: (§2)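 Greenhouse plants sprayed at the one-leaf stage, 2–3 weeks after sowing, with WP or EC formulations plus 0.5% additive at 600 l/ha water. Activity rated visually after about 3 weeks versus untreated controls (100% = dead, 0% = like control), at 320 g/ha or lower.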

[4] = test system: Alopecurus myosuroides (ALOMY); test: Post-emergence herbicidal action against ALOMY; conditions: 320 g/ha, visual rating about 3 weeks after treatment vs untreated controls (100% = plants have died, 0% = like control plants)
Summary of the method: as §2

[5] = test system: Pharbitis purpurea (PHBPU); test: Post-emergence herbicidal action against PHBPU
Summary of the method: as §2

[6] = test system: Pharbitis purpurea (PHBPU); test: Pre-emergence herbicidal action against PHBPU
Summary of the method: as §1

[7] = test system: Echinochloa crus-galli (ECHCG); test: Pre-emergence herbicidal action against ECHCG
Summary of the method: as §1

Setaria viridis (SETVI) [8] = test: Post-emergence herbicidal action against SETVI
Summary of the method: as §2

[9] = test system: Polygonum convolvulus (POLCO); test: Pre-emergence herbicidal action against POLCO
Summary of the method: as §1

Viola tricolor (VIOTR) [10] = test: Post-emergence herbicidal action against VIOTR
Summary of the method: as §2

[11] = test system: Polygonum convolvulus (POLCO); test: Post-emergence herbicidal action against POLCO
Summary of the method: as §2

[12] = test system: Amaranthus retroflexus (AMARE); test: Pre-emergence herbicidal action against AMARE; conditions: visual scoring after about 3 weeks vs untreated controls
Summary of the method: as §1

[13] = test system: Abutilon theophrasti (ABUTH); test: Pre-emergence herbicidal action against ABUTH; conditions: Dosage column 320 g/ha (title prints 3200 g/ha); scored visually after about 3 weeks; 100% = plants have died
Summary of the method: as §1

[14] = test system: Matricaria inodora (MATIN); test: Post-emergence herbicidal action against MATIN; conditions: dosage 320 g/ha
Summary of the method: as §2

[15] = test system: Echinochloa crus-galli (ECHCG); test: Post-emergence herbicidal action against ECHCG
Summary of the method: as §2

Avena fatua (AVEFA) [16] = test: Post-emergence herbicidal action against AVEFA; conditions: visual rating about 3 weeks after treatment
Summary of the method: as §2

[17] = test system: Amaranthus retroflexus (AMARE); test: Post-emergence herbicidal action against AMARE
Summary of the method: as §2

[18] = test system: Matricaria inodora (MATIN); test: Pre-emergence herbicidal action against MATIN
Summary of the method: as §1

Zea mays (ZEAMX) = conditions: crop plant compatibility, 80 g/ha, effect vs untreated controls
Summary of the method: (§3)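 Percent effect on the crop was judged by eye against untreated controls, where 0% means like control and 100% means dead plants. Plants had been sprayed post-emergence at the one-leaf stage and then kept under optimum greenhouse conditions for about 3 weeks.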

[19] = test system: Alopecurus myosuroides (ALOMY); test: Pre-emergence herbicidal action against ALOMY; conditions: scored visually after about 3 weeks, 100% = plants have died
Summary of the method: as §1

Lolium rigidum (LOLRI) [20] = test: Post-emergence herbicidal action against LOLRI; conditions: dosage 320 g/ha
Summary of the method: as §2

Setaria viridis (SETVI) [21] = test: Pre-emergence herbicidal action against SETVI
Summary of the method: as §1

[22] = test system: Verconica persica (VERPE); test: Pre-emergence herbicidal action against VERPE; conditions: dosage 320 g/ha
Summary of the method: as §1

Viola tricolor (VIOTR) [23] = test: Pre-emergence herbicidal action against VIOTR
Summary of the method: as §1

[24] = test system: Abutilon theophrasti (ABUTH); test: Post-emergence herbicidal action against ABUTH; conditions: 320 g/ha, visual rating about 3 weeks after treatment vs untreated controls (100% = plants have died, 0% = like control plants)
Summary of the method: as §2

Oryza sativa (ORYSA) = conditions: crop plant compatibility, 80 g/ha, effect in comparison to untreated controls
Summary of the method: as §3

[25] = 320 g/ha, visual rating about 3 weeks after treatment

Post-emergence action against ZEAMX in % (Zea mays (ZEAMX)): 0%
Structure (SMILES): Cc1cccnc1-n1nc(OCC(=O)O)c(Br)c1-c1ccc(F)nc1 [Example I-324]
Pre-emergence action against AVEFA in % (Avena fatua (AVEFA) [1]): 100%
Pre-emergence action against LOLRI in % (Lolium rigidum (LOLRI) [2]; dosage 80 g/ha): 100%
Pre-emergence action against LOLRI in % (Lolium rigidum (LOLRI) [2]; dosage 320 g/ha): 100%
Post-emergence action against VERPE in % ([3]; 320 g/ha, VERPE): 90%
Post-emergence action against VERPE in % ([3]; dosage 80 g/ha): 90%
Post-emergence action against ALOMY in % [4]: 100%
Post-emergence action against PHBPU in % ([5]; dosage 320 g/ha): 90%
Pre-emergence action against PHBPU in % ([6]; dosage 320 g/ha): 90%
Pre-emergence action against ECHCG in % ([7]; dosage 320 g/ha): 100%
Post-emergence action against SETVI in % (Setaria viridis (SETVI) [8]; dosage 80 g/ha): 80%
Post-emergence action against SETVI in % (Setaria viridis (SETVI) [8]; dosage 320 g/ha): 90%
Pre-emergence action against POLCO in % ([9]; dosage 80 g/ha): 90%
Pre-emergence action against POLCO in % ([9]; dosage 320 g/ha): 100%
Post-emergence action against VIOTR in % (Viola tricolor (VIOTR) [10]; 80 g/ha): 80%
Post-emergence action against VIOTR in % (Viola tricolor (VIOTR) [10]; 320 g/ha): 80%
Post-emergence action against POLCO in % ([11]; dosage 80 g/ha): 80%
Post-emergence action against POLCO in % ([11]; dosage 320 g/ha): 80%
Pre-emergence action against AMARE in % ([12]; 80 g/ha): 100%
Pre-emergence action against AMARE in % ([12]; 320 g/ha): 100%
Pre-emergence action against ABUTH [13]: 80%
Post-emergence action against MATIN in % [14]: 80%
Post-emergence action against ECHCG in % ([15]; dosage 80 g/ha): 90%
Post-emergence action against ECHCG in % ([15]; dosage 320 g/ha): 90%
Post-emergence action against AVEFA in % (Avena fatua (AVEFA) [16]; 80 g/ha): 100%
Post-emergence action against AVEFA in % (Avena fatua (AVEFA) [16]; 320 g/ha): 100%
Post-emergence action against AMARE in % ([17]; 80 g/ha, visual rating about 3 weeks after treatment vs untreated controls (100% = plants have died, 0% = like control plants)): 90%
Post-emergence action against AMARE in % [17, 25]: 90%
Pre-emergence action against MATIN in % ([18]; dosage 320 g/ha): 90%
Pre-emergence action against ALOMY ([19]; 80 g/ha): 100%
Pre-emergence action against ALOMY ([19]; 320 g/ha): 100%
Post-emergence action against LOLRI in % (Lolium rigidum (LOLRI) [20]): 90%
Pre-emergence action against SETVI in % (Setaria viridis (SETVI) [21]; dosage 320 g/ha): 100%
Pre-emergence action against VERPE in % [22]: 100%
Pre-emergence action against VIOTR in % (Viola tricolor (VIOTR) [23]; 320 g/ha, Viola tricolor): 100%
Pre-emergence action against VIOTR in % (Viola tricolor (VIOTR) [23]; dosage 80 g/ha): 100%

Post-emergence action against ORYSA in % (Oryza sativa (ORYSA)): 10%
Structure (SMILES): O=C(O)COc1nn(-c2nc(F)ccc2F)c(-c2cncc(F)c2)c1Br [Example I-207]
Pre-emergence action against AVEFA in % (Avena fatua (AVEFA) [1]): 80%
Post-emergence action against VERPE in % ([3]; 320 g/ha, VERPE): 90%
Post-emergence action against VERPE in % ([3]; dosage 80 g/ha): 80%
Post-emergence action against ALOMY in % [4]: 90%
Post-emergence action against PHBPU in % ([5]; dosage 80 g/ha): 80%
Post-emergence action against PHBPU in % ([5]; dosage 320 g/ha): 90%
Pre-emergence action against PHBPU in % ([6]; dosage 80 g/ha): 90%
Pre-emergence action against PHBPU in % ([6]; dosage 320 g/ha): 90%
Pre-emergence action against ECHCG in % ([7]; dosage 80 g/ha): 90%
Pre-emergence action against ECHCG in % ([7]; dosage 320 g/ha): 100%
Post-emergence action against SETVI in % (Setaria viridis (SETVI) [8]; dosage 80 g/ha): 90%
Post-emergence action against SETVI in % (Setaria viridis (SETVI) [8]; dosage 320 g/ha): 90%
Pre-emergence action against POLCO in % ([9]; dosage 80 g/ha): 90%
Pre-emergence action against POLCO in % ([9]; dosage 320 g/ha): 100%
Post-emergence action against VIOTR in % (Viola tricolor (VIOTR) [10]; 320 g/ha): 80%
Pre-emergence action against AMARE in % ([12]; 80 g/ha): 90%
Pre-emergence action against AMARE in % ([12]; 320 g/ha): 100%
Pre-emergence action against ABUTH [13]: 80%
Post-emergence action against MATIN in % [14]: 80%
Post-emergence action against ECHCG in % ([15]; dosage 80 g/ha): 80%
Post-emergence action against ECHCG in % ([15]; dosage 320 g/ha): 80%
Post-emergence action against AMARE in % [17, 25]: 80%
Pre-emergence action against MATIN in % ([18]; dosage 80 g/ha): 90%
Pre-emergence action against MATIN in % ([18]; dosage 320 g/ha): 90%
Post-emergence action against ABUTH in % [24]: 80%
Pre-emergence action against ALOMY ([19]; 320 g/ha): 80%
Pre-emergence action against SETVI in % (Setaria viridis (SETVI) [21]; dosage 80 g/ha): 80%
Pre-emergence action against SETVI in % (Setaria viridis (SETVI) [21]; dosage 320 g/ha): 100%
Pre-emergence action against VERPE in % [22]: 90%
Pre-emergence action against VIOTR in % (Viola tricolor (VIOTR) [23]; 320 g/ha, Viola tricolor): 100%
Pre-emergence action against VIOTR in % (Viola tricolor (VIOTR) [23]; dosage 80 g/ha): 100%
